Test results as given in US7321046B2, “Analogs of dictyostatin, intermediates therefor and methods of synthesis thereof” (University of Pittsburgh, priority 2002, dated 2008).

Columns and labels:
Bovine brain tubulin = system: T1, Bovine brain tubulin; assay: Pelleting assay (tubulin assembly EC50 determination); format: biochemical; conditions: for % Tubulin polymerized by 50 μM test agent / EC50: tubulin 10 μM in 0.2 M MSG, 15 min at 20° C.; for EC50: concentration required to polymerize 50% of tubulin, read-out: EC50 (μM) ± SD (N)
T1 construct: Bovine brain tubulin (10 μM) in 0.2 M MSG, 15 min at 20° C
Method: Dictyostatin and representative analogs were evaluated in a quantitative assay for their ability to promote tubulin polymerization. […] When the percent polymer formed was determined in the reactions, a comparison of the activities of all the analogs could be made.
The assay was performed under three different reaction conditions following the procedure reported earlier (Gapud et al., 2004). Reaction condition 1 included 0.2 M monosodium glutamate (MSG), 10 μM tubulin, 5% DMSO and varying concentrations of test agents. Reaction condition 2 included 0.8 M MSG, 400 μM GTP, 10 μM tubulin, 5% DMSO, and varying concentrations of test agents. Reaction condition 3 had 0.6 M MSG, 200 μM GTP, and 10 μM tubulin, and 5% DMSO, and varying concentrations of the test agents. The experimental protocol for all the three reaction conditions was the following. The reaction mixtures were incubated at room temperature (20-22° C.) for 15 min and spun for 10 min at 14,000 rpm in an Eppendorf microtube centrifuge. Aliquots of the supernatants were removed and assayed for protein content by the method of Lowry.

HeLa cells = assay: Multiparameter fluorescence high information content analysis of cellular effects; format: cell-based; set-up: unit not given here; conditions: 24 h treatment; for Minimum detectable cellular change, Nuclear condensation: Hoechst 33342
Method: HeLa cells were plated on collagen-coated 384-well microtiter plates, allowed to attach, then treated for 24 h with test agents. Test agent concentrations began at 1 μM, and two-fold dilutions were made to levels below 1 nM. After the treatment period, the cells were fixed with formalin and their chromatin stained with Hoechst 33342. Cells were permeabilized and treated with primary antibodies for α-tubulin and phosphohistone H3, and then with fluorophore-labeled secondary antibodies. The three fluorescent channels were then examined on an ArrayScan II, which gives quantitative pixel distribution and density information in each channel on a per cell basis.
HeLa cells growing at log phase were trypsinized and plated in 40 μL at a density of 7,000-8,000 cells per well in calf skin collagen I-coated 384-well plates (Falcon #3962; Fisher Scientific). Cells were exposed to test agents or 0.5% DMSO within 2-8 h of plating. Concentrated DMSO stock solutions of all test agents were diluted into solutions of HBSS medium plus 10% FBS and added to the microplate wells (10 μL per well), using an automated liquid handling system (Biomek® 2000; Beckman-Coulter, Inc.) to provide a serial 2-fold dilution of each test agent. The cells were incubated in the presence of test agents for 24 h. At the end of the incubation, the medium was removed and replaced with HBSS containing 4% formaldehyde and 10 μg/mL Hoechst 33342 (25 μL/well) to fix the cells and fluorescently label their chromatin. After incubation at room temperature for 20-30 min, the solution was removed from each well and replaced with HBSS (100 μL/well). Further reagent additions were made to the microplates using the Biomek 2000. After removing the HBSS from each well, cells were permeabilized for 5 min at room temperature with 0.5% (w/w) Triton X-100 in HBSS (10 μL/well). This step extracts a fraction of the soluble cellular components, including soluble tubulin. The wells were washed with HBSS (100 μL/well), followed by addition of a primary antibody solution containing mouse anti-α-tubulin (1:3000) and rabbit anti-phosphohistone H3 (1:500) in HBSS (10 μL/well). After 1 h at room temperature, the wells were washed with HBSS as above, followed by the addition of a secondary antibody solution containing fluorescein-5-isothiocyanate (FITC)-labeled donkey anti-mouse (1:300) and Cy3-labeled donkey anti-rabbit (1:300) antibodies diluted in HBSS (10 μL/well). After 1 h at room temperature, the wells were washed as above, and HBSS was added (100 μL/well). The plates were placed in an ArrayScan® HCS Reader with the Target Activation BioApplication Software coupled to Cellomics® Store and the vHCS™ Discovery Toolbox (Cellomics, Inc.) to analyze images. Briefly, the instrument was used to scan multiple optical fields, each with multiparameter fluorescence, within a subset of the wells of the 384-well microplate. The BioApplication software produced multiple numerical feature values, such as subcellular object intensities, shapes, and location for each cell within an optical field. […] A nuclear mask was generated from Hoechst 33342-stained nuclei, and object identification thresholds and shape parameters were set such that the algorithm identified over 90% of the nuclei in each field. Objects that touched each other or the edge of the image were excluded from the analysis. Tubulin mass was defined as the average green (FITC) pixel intensity in an area defined by the Hoechst-defined nuclear mask. This cytoplasmic area around the nucleus contains cytoskeletal components is a region from which sensitive measurements of cytoplasmic characteristics can be made.

[1] = system: purified bovine brain tubulin; assay: Tubulin polymerization assay (turbidity); format: biochemical; conditions: tubulin 1 mg/mL ± MAPs ± GTP, agents at 10 and 40 μM, 0 to 30° C.
Method: The abilities of the new compounds to cause tubulin polymerization were determined under reaction conditions consisting of purified bovine brain tubulin (1 mg/mL) in the presence or absence of microtubule-associated proteins (MAPs, 0.75 mg/mL) and GTP (100 μM). Test agents were initially screened at 10 and 40 μM. In these experiments, test agent-induced assembly of soluble tubulin into polymer, with respect to the presence and absence of cofactors and at different temperatures, was monitored in a multi-cuvette, temperature-controlled spectrophotometer via development of turbidity in the solution. The initial temperature was closely controlled at 0° C., then rapidly raised to 10° C., to 20° C., then finally to 30° C. to determine both the temperature at which a test agent induced assembly as well as the extent of agent-induced assembly. The temperature increases were followed by a rapid decrease in temperature back to 0° C. to determine the cold-stability of polymer formed.
Tubulin assembly was monitored turbidimetrically in Gilford 250 spectrophotometers equipped with electronic temperature controllers as described previously (ter Haar et al., 1996). The reaction mixtures without the compounds consisted of tubulin (1 mg/ml), heat-treated MAPs (0.75 mg/ml, if present), GTP (100 μM, if present), and 0.1M (4-morpholinyl)ethane sulfonate (MeS). Baselines were established after addition of all reaction components except the compounds to the cuvettes held at 0° C. Compounds, at 10 μM or 40 μM final concentration, were then added and each reaction mixture (0.25 mL final volume) was subjected to the indicated temperature changes.

SMILES	percent polymer formed (in words) (Bovine brain tubulin)	% Tubulin polymerized by 50 μM test agent (Bovine brain tubulin)	EC50 (Bovine brain tubulin)	Minimum detectable cellular change, Phosphohistone H3 (HeLa cells)	Minimum detectable cellular change, Tubulin polymer intensity (HeLa cells)	Minimum detectable cellular change, Nuclear condensation (HeLa cells)	test agent-induced tubulin assembly, turbidity profile (in words) [1]
C=C/C=C\[C@H](C)[C@H](O)[C@@H](C)[C@H](O)CC[C@H](C)C[C@H](C)[C@@H](O)[C@@H](C)/C=C\[C@@H](O)C[C@H](O)[C@H](C)/C=C/C=C\C(=O)OC [Compound 50, (2Z,4E,6R,7S,9S,10Z,12S,13R,14S,16S,19R,20S,21S,22S,23Z)-Methyl-7,9,13,19,21-penta-hydroxy-6,12,14,16,20,22-hexamethylhexacosa-2,4,10,23,25-pentaenoate]	moderate activity	39 ± 7%	> 50 µM	149 ± 23.6 (4)	219 ± 36 (4)	479 ± 182 (4)	caused tubulin assembly at temperatures lower than 30 °C
C=CC=CC(C)C1OC(=O)C=CC=CC(C)C(O)CC(O)C=CC(C)C(O)C(C)CC(C)CCC(O)C1C [Compound 59, (8S,10S,14R,20S)-Tetrahydroxy-(7R,13S,15S,17S,21s)-pentamethyl-(22S)-((1S)-methylpenta-2,4-dienyl)-oxacyclodocosa-3,5,11-trien-2-one]	moderate activity	30 ± 2%	> 50 µM	261 ± 91 (4)	284 ± 108 (4)	363 ± 146 (2)	caused tubulin assembly at temperatures lower than 30 °C
C=CC=CC(C)C1OC(=O)C=CC=CC(C)C(O)CC(O)C=CC(C)C(O)C(C)CCCCC(O)C1C [Compound 79, (8S,10S,14R,20R)-Tetrahydroxy-(7R,13S,15S,21S)-tetramethyl-(22S)-((1S)-methylpenta-2,4-dienyl)-oxacyclodocosa-3,5,11-trien-2-one]		91 ± 6%	14 ± 7 µM	34.4 ± 10.5 (4)	26.9 ± 2.9 (4)	71.5 ± 18.0 (4)	especially potent among the analogs
C=C/C=C\[C@H](C)[C@@H]1OC(=O)/C=C\C=C\[C@@H](C)[C@@H](O)C[C@H](O)/C=C\[C@H](C)[C@H](O)[C@@H](C)C[C@@H](C)CC[C@@H](O)[C@@H]1C [dictyostatin-1, (8S,10S,14R,20R)-Tetrahydroxy-(7R,13S,15S,17S,21S)-pentamethyl-(22S)-((1S)-methylpenta-2,4-dienyl)oxacyclodocosa-3,5,11-trien-2-one, reference compound]		99 ± 4%	3.1 ± 0.2 µM	9.6 ± 2.4 (4)	7.4 ± 2.5 (4)	32.7 ± 11.7 (3)	far more potent than those of paclitaxel
C=C/C=C\[C@H](C)[C@H](OC(N)=O)[C@@H](C)[C@H](O)[C@@H](C)C/C(C)=C\[C@H](C)[C@@H](O)[C@@H](C)/C=C\[C@@H](O)C[C@@H]1OC(=O)[C@H](C)[C@@H](O)[C@H]1C [discodermolide, reference compound]		98 ± 5%	3.6 ± 0.4 µM	38.4 ± 21.9 (2)	64.6 ± 0.0 (2)	62.5 (1)	far more potent than those of paclitaxel
